Experiments:
[1] = system: common sowthistle; experiment: Test E pre-/postemergence herbicide test; type: in vivo, Sonchus oleraceous
In short: (§1)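 Greenhouse whole-plant test: compounds formulated in a non-phytotoxic solvent mixture with surfactant were applied preemergence to planted seeds and, concurrently, postemergence to plants 2 to 18 cm tall. Response was scored visually after 12 to 14 days, 0 meaning no effect and 100 complete control.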

[2] = system: common ragweed; experiment: Test E pre-/postemergence herbicide test; type: in vivo, Ambrosia elatior
In short: as §1

[3] = system: Canada horseweed; experiment: Test E pre-/postemergence herbicide test; type: in vivo, Erigeron Canadensis
In short: as §1

[4] = system: bermudagrass; experiment: Test E pre-/postemergence herbicide test; type: in vivo, Cynodon dactylon
In short: as §1

[5] = system: Italian ryegrass; experiment: Test E pre-/postemergence herbicide test; type: in vivo, Lolium multiflorum
In short: as §1

[6] = system: Russian thistle; experiment: Test E pre-/postemergence herbicide test; type: in vivo, Salsola kali; conditions: Preemergence
In short: as §1

[7] = system: guineagrass; experiment: Test E pre-/postemergence herbicide test; type: in vivo, Panicum maximum
In short: as §1

[8] = system: field bindweed; experiment: Test E pre-/postemergence herbicide test; type: in vivo, Convolvulus arvensis
In short: as §1

[9] = system: southern sandbur; experiment: Test E pre-/postemergence herbicide test; type: in vivo, Cenchrus echinatus
In short: as §1

[10] = system: green foxtail; experiment: Test E pre-/postemergence herbicide test; type: in vivo, Setaria viridis
In short: as §1

[11] = system: windgrass; experiment: Test C postemergence herbicide test; type: in vivo, Apera spica-venti
In short: (§2)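 Ratings (0 = no effect, 100 = complete control) come from visual comparison with untreated plants after 12 to 14 days in the greenhouse. Treatment was postemergence at the 1- to 4-leaf stage (2–18 cm), or at the 2-leaf stage for the flooded paddy barnyardgrass.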

[12] = system: Italian ryegrass; experiment: Test C postemergence herbicide test; type: in vivo, Lolium multiflorum
In short: as §2

[13] = system: blackgrass; experiment: Test C postemergence herbicide test; type: in vivo, Alopecurus myosuroides
In short: as §2

[14] = Postemergence, 250 g ai/ha, scale 0 to 100
[15] = Preemergence, 62 g ai/ha, scale 0 to 100
[16] = Preemergence, 125 g ai/ha, scale 0 (no effect) to 100 (complete control)
[17] = Preemergence, 250 g ai/ha, scale 0 (no effect) to 100 (complete control)
[18] = Preemergence, 500 g ai/ha, scale 0 (no effect) to 100 (complete control)
[19] = postemergence, 125 g ai/ha, scale 0 to 100
[20] = postemergence, 62 g ai/ha, scale 0 to 100
[21] = 500 g ai/ha, scale 0 (no effect) to 100 (complete control)
[22] = Postemergence, 500 g ai/ha, scale 0 to 100
[23] = Preemergence, 125 g ai/ha, scale 0 to 100
[24] = Postemergence, 500 g ai/ha, scale 0 to 100, 0 no effect, 100 complete control

Compound: CCNC(=O)c1ccc(F)c(NC(=O)c2cc(C(C)(C)C)nn2CC)c1 [Compound 2, 3-(1,1-dimethylethyl)-1-ethyl-N-[5-[(ethylamino)carbonyl]-2-fluorophenyl]-1H-pyrazole-5-carboxamide]
- Plant response rating, Sowthistle [1, 14]: 95
- Plant response rating, Sowthistle [1, 15]: 90
- Plant response rating, Sowthistle [1, 16]: 95
- Plant response rating, Sowthistle [1, 17]: 95
- Plant response rating, Sowthistle [1, 18]: 95
- Plant response rating, Sowthistle [1, 19]: 90
- Plant response rating, Sowthistle [1, 20]: 90
- Plant response rating, Ragweed [2, 15]: 20
- Plant response rating, Ragweed [2, 16]: 60
- Plant response rating, Ragweed [2, 17]: 70
- Plant response rating, Ragweed [2, 18]: 85
- Plant response rating, Ragweed [2, 19]: 80
- Plant response rating, Ragweed [2, 20]: 60
- Plant response rating, Horseweed [3, 15]: 80
- Plant response rating, Horseweed [3, 16]: 100
- Plant response rating, Horseweed [3, 17]: 100
- Plant response rating, Horseweed [3, 18]: 100
- Plant response rating, Bermudagrass [4, 14]: 90
- Plant response rating, Bermudagrass [4, 15]: 90
- Plant response rating, Bermudagrass [4, 16]: 95
- Plant response rating, Bermudagrass [4, 17]: 100
- Plant response rating, Bermudagrass [4, 18]: 100
- Plant response rating, Bermudagrass [4, 19]: 85
- Plant response rating, Bermudagrass [4, 20]: 20
- Plant response rating, Ryegrass, Italian [5, 14]: 98
- Plant response rating, Ryegrass, Italian [5, 15]: 60
- Plant response rating, Ryegrass, Italian [5, 16]: 80
- Plant response rating, Ryegrass, Italian [5, 17]: 95
- Plant response rating, Ryegrass, Italian [5, 18]: 95
- Plant response rating, Ryegrass, Italian [5, 19]: 90
- Plant response rating, Ryegrass, Italian [5, 20]: 80
- Plant response rating, Thistle ([6]; 62 g ai/ha, scale 0 to 100): 50
- Plant response rating, Thistle ([6]; 125 g ai/ha, scale 0 to 100): 60
- Plant response rating, Thistle ([6]; 250 g ai/ha, scale 0 (no effect) to 100 (complete control)): 60
- Plant response rating, Thistle [6, 21]: 80
- Plant response rating, Guineagrass [7, 14]: 95
- Plant response rating, Guineagrass [7, 15]: 70
- Plant response rating, Guineagrass [7, 16]: 80
- Plant response rating, Guineagrass [7, 17]: 100
- Plant response rating, Guineagrass [7, 18]: 100
- Plant response rating, Guineagrass [7, 19]: 75
- Plant response rating, Guineagrass [7, 20]: 30
- Plant response rating, Bindweed, Field [8, 14]: 70
- Plant response rating, Bindweed, Field [8, 15]: 10
- Plant response rating, Bindweed, Field [8, 17]: 70
- Plant response rating, Bindweed, Field [8, 18]: 80
- Plant response rating, Bindweed, Field [8, 19]: 70
- Plant response rating, Bindweed, Field [8, 20]: 50
- Plant response rating, Sandbur [9, 14]: 95
- Plant response rating, Sandbur [9, 15]: 60
- Plant response rating, Sandbur [9, 16]: 70
- Plant response rating, Sandbur [9, 17]: 80
- Plant response rating, Sandbur [9, 18]: 100
- Plant response rating, Sandbur [9, 19]: 75
- Plant response rating, Sandbur [9, 20]: 65
- Plant response rating, Foxtail, Green [10, 14]: 95
- Plant response rating, Foxtail, Green [10, 15]: 40
- Plant response rating, Foxtail, Green [10, 16]: 80
- Plant response rating, Foxtail, Green [10, 17]: 100
- Plant response rating, Foxtail, Green [10, 18]: 100
- Plant response rating, Foxtail, Green [10, 19]: 90
- Plant response rating, Foxtail, Green [10, 20]: 60

Compound: CCn1nc(C(C)(C)C)cc1C(=O)Nc1cccc(C(N)=O)n1 [Compound 162, 6-[[[3-(1,1-dimethylethyl)-1-ethyl-1H-pyrazol-5-yl]carbonyl]amino]-2-pyridinecarboxamide]
- Plant response rating, Sowthistle [1, 22]: 100
- Plant response rating, Sowthistle [1, 14]: 75
- Plant response rating, Sowthistle [1, 15]: 40
- Plant response rating, Sowthistle [1, 23]: 60
- Plant response rating, Sowthistle [1, 17]: 80
- Plant response rating, Sowthistle [1, 18]: 95
- Plant response rating, Sowthistle [1, 19]: 75
- Plant response rating, Sowthistle [1, 20]: 75
- Plant response rating, Ragweed [2, 22]: 90
- Plant response rating, Ragweed [2, 14]: 80
- Plant response rating, Ragweed [2, 15]: 20
- Plant response rating, Ragweed [2, 23]: 60
- Plant response rating, Ragweed [2, 17]: 75
- Plant response rating, Ragweed [2, 18]: 95
- Plant response rating, Ragweed [2, 19]: 75
- Plant response rating, Ragweed [2, 20]: 50
- Plant response rating, Horseweed [3, 22]: 100
- Plant response rating, Horseweed [3, 14]: 100
- Plant response rating, Horseweed [3, 15]: 100
- Plant response rating, Horseweed [3, 23]: 100
- Plant response rating, Horseweed [3, 17]: 100
- Plant response rating, Horseweed [3, 18]: 100
- Plant response rating, Horseweed [3, 19]: 70
- Plant response rating, Horseweed [3, 20]: 70
- Plant response rating, Bermudagrass [4, 22]: 80
- Plant response rating, Bermudagrass [4, 14]: 70
- Plant response rating, Bermudagrass [4, 15]: 70
- Plant response rating, Bermudagrass [4, 23]: 80
- Plant response rating, Bermudagrass [4, 17]: 90
- Plant response rating, Bermudagrass [4, 18]: 100
- Plant response rating, Bermudagrass [4, 19]: 30
- Plant response rating, Bermudagrass [4, 20]: 0
- Plant response rating, Ryegrass, Italian [5, 22]: 100
- Plant response rating, Ryegrass, Italian [5, 14]: 98
- Plant response rating, Ryegrass, Italian [5, 15]: 50
- Plant response rating, Ryegrass, Italian [5, 23]: 95
- Plant response rating, Ryegrass, Italian [5, 17]: 95
- Plant response rating, Ryegrass, Italian [5, 18]: 95
- Plant response rating, Ryegrass, Italian [5, 19]: 95
- Plant response rating, Ryegrass, Italian [5, 20]: 50
- Plant response rating, Thistle ([6]; 62 g ai/ha, scale 0 to 100): 50
- Plant response rating, Thistle ([6]; 125 g ai/ha, scale 0 to 100): 50
- Plant response rating, Thistle [6, 21]: 70
- Plant response rating, Guineagrass [7, 22]: 98
- Plant response rating, Guineagrass [7, 14]: 90
- Plant response rating, Guineagrass [7, 15]: 50
- Plant response rating, Guineagrass [7, 23]: 100
- Plant response rating, Guineagrass [7, 17]: 100
- Plant response rating, Guineagrass [7, 18]: 100
- Plant response rating, Guineagrass [7, 19]: 75
- Plant response rating, Guineagrass [7, 20]: 35
- Plant response rating, Bindweed, Field [8, 22]: 98
- Plant response rating, Bindweed, Field [8, 14]: 95
- Plant response rating, Bindweed, Field [8, 15]: 30
- Plant response rating, Bindweed, Field [8, 23]: 80
- Plant response rating, Bindweed, Field [8, 17]: 100
- Plant response rating, Bindweed, Field [8, 18]: 100
- Plant response rating, Bindweed, Field [8, 19]: 80
- Plant response rating, Bindweed, Field [8, 20]: 50
- Plant response rating, Sandbur [9, 22]: 90
- Plant response rating, Sandbur [9, 14]: 80
- Plant response rating, Sandbur [9, 15]: 20
- Plant response rating, Sandbur [9, 23]: 70
- Plant response rating, Sandbur [9, 17]: 80
- Plant response rating, Sandbur [9, 18]: 80
- Plant response rating, Sandbur [9, 19]: 50
- Plant response rating, Sandbur [9, 20]: 20
- Plant response rating, Foxtail, Green [10, 22]: 95
- Plant response rating, Foxtail, Green [10, 14]: 85
- Plant response rating, Foxtail, Green [10, 15]: 30
- Plant response rating, Foxtail, Green [10, 23]: 85
- Plant response rating, Foxtail, Green [10, 17]: 100
- Plant response rating, Foxtail, Green [10, 18]: 100
- Plant response rating, Foxtail, Green [10, 19]: 50
- Plant response rating, Foxtail, Green [10, 20]: 30

Compound: CCNC(=O)c1cccc(NC(=O)c2nn(C(C)(C)C)nc2C)c1 [Compound 392]
- Plant response rating, Sowthistle [1, 15]: 20
- Plant response rating, Sowthistle [1, 23]: 95
- Plant response rating, Sowthistle [1, 17]: 95
- Plant response rating, Sowthistle [1, 18]: 95
- Plant response rating, Ragweed [2, 15]: 30
- Plant response rating, Ragweed [2, 23]: 30
- Plant response rating, Ragweed [2, 17]: 70
- Plant response rating, Ragweed [2, 18]: 100
- Plant response rating, Windgrass [11, 24]: 65
- Plant response rating, Windgrass [11, 19]: 55
- Plant response rating, Windgrass [11, 20]: 35
- Plant response rating, Horseweed [3, 15]: 60
- Plant response rating, Horseweed [3, 23]: 60
- Plant response rating, Horseweed [3, 17]: 75
- Plant response rating, Horseweed [3, 18]: 85
- Plant response rating, Bermudagrass [4, 15]: 60
- Plant response rating, Bermudagrass [4, 23]: 60
- Plant response rating, Bermudagrass [4, 17]: 85
- Plant response rating, Bermudagrass [4, 18]: 90
- Plant response rating, Ryegrass, Italian [5, 15]: 10
- Plant response rating, Ryegrass, Italian [5, 23]: 60
- Plant response rating, Ryegrass, Italian [5, 17]: 70
- Plant response rating, Ryegrass, Italian [5, 18]: 80
- Plant response rating, Thistle ([6]; 125 g ai/ha, scale 0 to 100): 10
- Plant response rating, Thistle [6, 21]: 100
- Plant response rating, Guineagrass [7, 15]: 75
- Plant response rating, Guineagrass [7, 23]: 80
- Plant response rating, Guineagrass [7, 17]: 95
- Plant response rating, Guineagrass [7, 18]: 100
- Plant response rating, Ryegrass, Italian [12, 24]: 65
- Plant response rating, Ryegrass, Italian [12, 19]: 50
- Plant response rating, Ryegrass, Italian [12, 20]: 35
- Plant response rating, Bindweed, Field [8, 15]: 30
- Plant response rating, Bindweed, Field [8, 23]: 30
- Plant response rating, Bindweed, Field [8, 17]: 100
- Plant response rating, Bindweed, Field [8, 18]: 100
- Blackgrass plant response rating [13, 22]: 65
- Plant response rating, Blackgrass ([13]; Postemergence, 250 g ai/ha, scale 0 to 100, 0 no effect, 100 complete control): 45
- Plant response rating, Blackgrass [13, 19]: 45
- Plant response rating, Blackgrass [13, 20]: 35
- Plant response rating, Sandbur [9, 15]: 0
- Plant response rating, Sandbur [9, 23]: 10
- Plant response rating, Sandbur [9, 17]: 20
- Plant response rating, Sandbur [9, 18]: 70
- Plant response rating, Foxtail, Green [10, 15]: 10
- Plant response rating, Foxtail, Green [10, 17]: 70
- Plant response rating, Foxtail, Green [10, 18]: 95
